Consider 32 compounds from patent US8501770B2 (ArQule, Inc., priority 2009, dated 2013).

Structures are written as SMILES.

The target in this assay is Full-length inactive AKT1 (Homo sapiens, UniProt P31749). The assay can be described thus: Inactive Akt Alpha Screen Assay. Type of assay: biochemical. Conditions: values not marked with "*"; read-out: Akt1 IC50, (AlphaScreen). The method, boiled down: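 AlphaScreen read-out (excitation 640 nm, emission 570 nm) after 90 min incubation at room temperature in the dark. Signal comes from crosstide phosphorylation by AKT1, which was activated by added PDK1, MAPKAPK2, ATP and lipid vesicles, captured via phospho-AKT substrate antibody and streptavidin beads.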
Chain of Full-length inactive AKT1 (P31749 whole entry): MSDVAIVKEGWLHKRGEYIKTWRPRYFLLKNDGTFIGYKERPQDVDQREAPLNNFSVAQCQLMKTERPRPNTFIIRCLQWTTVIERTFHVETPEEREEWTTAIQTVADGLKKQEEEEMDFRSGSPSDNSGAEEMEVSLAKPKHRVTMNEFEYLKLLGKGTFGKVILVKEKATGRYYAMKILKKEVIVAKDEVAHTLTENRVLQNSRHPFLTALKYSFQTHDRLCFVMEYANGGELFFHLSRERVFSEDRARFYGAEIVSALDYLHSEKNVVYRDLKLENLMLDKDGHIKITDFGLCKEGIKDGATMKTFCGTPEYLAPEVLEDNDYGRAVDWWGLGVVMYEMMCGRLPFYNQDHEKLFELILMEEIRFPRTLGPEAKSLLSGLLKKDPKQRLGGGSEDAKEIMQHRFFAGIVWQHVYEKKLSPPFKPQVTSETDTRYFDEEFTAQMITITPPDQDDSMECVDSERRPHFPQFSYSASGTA
One may read the IC50 as the concentration needed to halve the response being measured. Regarding `Nc1ncccc1-c1nc2cc(-c3ccccc3)cnc2n1-c1ccc(C2(N)CCC2)cc1` [Example 358, 3-(3-(4-(1-aminocyclobutyl)phenyl)-6-phenyl-3H-imidazo[4,5-b]pyridin-2-yl)pyridin-2-amine], the IC50 came to 55 nM.

In the case of `CC(=O)Nc1cccc(-c2cnc3c(c2)nc(-c2cccnc2N)n3-c2ccc(C3(N)CCC3)cc2)c1` [Example 359, N-(3-(3-(4-(1-aminocyclobutyl)phenyl)-2-(2-aminopyridin-3-yl)-3H-imidazo[4,5-b]pyridin-6-yl)phenyl)acetamide], the IC50 is 57 nM. Next, `COC(=O)C1(c2ccc(-n3c(-c4cccnc4N)nc4cc(-c5ccccc5)cnc43)cc2)CCC1` [Example 361, methyl 1-(4-(2-(2-aminopyridin-3-yl)-6-phenyl-3H-imidazo[4,5-b]pyridin-3-yl)phenyl)cyclobutanecarboxylate]: 360 nM; `Nc1ncccc1-c1nc2cc(-c3ccccc3)cnc2n1-c1ccc(C2(C(=O)O)CCC2)cc1` [Example 363, 1-(4-(2-(2-aminopyridin-3-yl)-6-phenyl-3H-imidazo[4,5-b]pyridin-3-yl)phenyl)cyclobutanecarboxylic acid]: 250 nM. Consider `CCOC(=O)c1cccc(-c2ccc3nc(-c4cccnc4N)n(-c4ccc(C5(N)CCC5)cc4)c3n2)c1` [Example 364, ethyl 3-(3-(4-(1-aminocyclobutyl)phenyl)-2-(2-aminopyridin-3-yl)-3H-imidazo[4,5-b]pyridin-5-yl)benzoate], for which the half-maximal inhibitory concentration (IC50) was 1.6 nM. Next, `NC(=O)c1cccc(-c2ccc3nc(-c4cccnc4N)n(-c4ccc(C5(N)CCC5)cc4)c3n2)c1` [Example 365, 3-(3-(4-(1-aminocyclobutyl)phenyl)-2-(2-aminopyridin-3-yl)-3H-imidazo[4,5-b]pyridin-5-yl)benzamide]: 3 nM; `CS(=O)(=O)Nc1ncccc1-c1nc2ccc(-c3ccccc3)nc2n1-c1ccc(C2(NS(C)(=O)=O)CCC2)cc1` [Example 366, N-(3-(3-(4-(1-(methylsulfonamido)cyclobutyl)phenyl)-5-phenyl-3H-imidazo[4,5-b]pyridin-2-yl)pyridin-2-yl)methanesulfonamide]: 140 nM.

Turning to `CS(=O)(=O)NC1(c2ccc(-n3c(-c4cccnc4N)nc4ccc(-c5ccccc5)nc43)cc2)CCC1` [Example 367, N-(1-(4-(2-(2-aminopyridin-3-yl)-5-phenyl-3H-imidazo[4,5-b]pyridin-3-yl)phenyl)cyclobutyl)methanesulfonamide], the IC50 is 180 nM. `Nc1ncc(Cl)cc1-c1nc2ccc(-c3ccccc3)nc2n1-c1ccc(C2(N)CCC2)cc1` [Example 368, 3-(3-(4-(1-aminocyclobutyl)phenyl)-5-phenyl-3H-imidazo[4,5-b]pyridin-2-yl)-5-chloropyridin-2-amine]: the IC50 stood at 10 nM. As for `CNC(=O)c1cccc(-c2ccc3nc(-c4cccnc4N)n(-c4ccc(CN)cc4)c3n2)c1` [Example 369, 3-(3-(4-(aminomethyl)phenyl)-2-(2-aminopyridin-3-yl)-3H-imidazo[4,5-b]pyridin-5-yl)-N-methylbenzamide], the IC50 amounted to 5.4 nM. Next, `CNC(=O)c1cccc(-c2ccc3nc(-c4cccnc4N)n(-c4ccc(C5(N)CCC5)cc4)c3n2)c1` [Example 370, 3-(3-(4-(1-aminocyclobutyl)phenyl)-2-(2-aminopyridin-3-yl)-3H-imidazo[4,5-b]pyridin-5-yl)-N-methylbenzamide]: 4.6 nM; `CC(=O)c1cccc(-c2ccc3nc(-c4cccnc4N)n(-c4ccc(C5(N)CCC5)cc4)c3n2)c1` [Example 372, 1-(3-(3-(4-(1-aminocyclobutyl)phenyl)-2-(2-aminopyridin-3-yl)-3H-imidazo[4,5-b]pyridin-5-yl)phenyl)ethanone]: 2.1 nM. For `Nc1ncccc1-c1nc2ccc(-c3ccccc3)nc2n1-c1ccc(C2(N)COC2)cc1` [Example 373, 3-(3-(4-(3-aminooxetan-3-yl)phenyl)-5-phenyl-3H-imidazo[4,5-b]pyridin-2-yl)pyridin-2-amine], the IC50 stood at 6.6 nM. To `Nc1ncccc1-c1nc2ccc(-c3cccc(CO)c3)nc2n1-c1ccc(C2(N)CCC2)cc1` [Example 374, (3-(3-(4-(1-aminocyclobutyl)phenyl)-2-(2-aminopyridin-3-yl)-3H-imidazo[4,5-b]pyridin-5-yl)phenyl)methanol] belongs 1.3 nM.

`CS(=O)(=O)Nc1cccc(-c2ccc3nc(-c4cccnc4N)n(-c4ccc(C5(N)CCC5)cc4)c3n2)c1` [Example 375, N-(3-(3-(4-(1-aminocyclobutyl)phenyl)-2-(2-aminopyridin-3-yl)-3H-imidazo[4,5-b]pyridin-5-yl)phenyl)methanesulfonamide]: the IC50 was determined as 1.4 nM. Next, `Nc1ncccc1-c1nc2ccc(-c3cccc(C(=O)O)c3)nc2n1-c1ccc(C2(N)CCC2)cc1` [Example 376, 3-(3-(4-(1-aminocyclobutyl)phenyl)-2-(2-3aminopyridin-3-yl)-H-imidazo[4,5-b]pyridin-5-yl)benzoic acid]: 3.8 nM; `CNC(=O)C1(c2ccc(-n3c(-c4cccnc4N)nc4ccc(-c5ccccc5)nc43)cc2)CCC1` [Example 378, 1-(4-(2-(2-aminopyridin-3-yl)-5-phenyl-3H-imidazo[4,5-b]pyridin-3-yl)phenyl)-N-methylcyclobutanecarboxamide]: 93 nM. For `Nc1ncccc1-c1nc2ccc(-c3ccccc3)nc2n1-c1ccc(C2(C(=O)NCCO)CCC2)cc1` [Example 379, 1-(4-(2-(2-aminopyridin-3-yl)-5-phenyl-3H-imidazo[4,5-b]pyridin-3-yl)phenyl)-N-(2-hydroxyethyl)cyclobutanecarboxamide], the IC50 was 290 nM.

Turning to `CN(C)C(=O)c1cccc(-c2ccc3nc(-c4cccnc4N)n(-c4ccc(C5(N)CCC5)cc4)c3n2)c1` [Example 380, 3-(3-(4-(1-aminocyclobutyl)phenyl)-2-(2-aminopyridin-3-yl)-3H-imidazo[4,5-b]pyridin-5-yl)-N,N-dimethylbenzamide], the IC50 came out at 3.3 nM. Next, `Nc1ncccc1-c1nc2ccc(-c3ccccc3)nc2n1-c1ccc(C2(NC(=O)Nc3ccccc3)CCC2)cc1` [Example 381, 1-(1-(4-(2-(2-aminopyridin-3-yl)-5-phenyl-3H-imidazo[4,5-b]pyridin-3-yl)phenyl)cyclobutyl)-3-phenylurea]: 54 nM.

Consider `Nc1ncccc1-c1nc2ccc(-c3ccccc3CO)nc2n1-c1ccc(C2(N)CCC2)cc1` [Example 382, (2-(3-(4-(1-aminocyclobutyl)phenyl)-2-(2-aminopyridin-3-yl)-3H-imidazo[4,5-b]pyridin-5-yl)phenyl)methanol], for which the IC50 is 10 nM. Regarding `Nc1ncccc1-c1nc2ccc(-c3ccc(CO)cc3)nc2n1-c1ccc(C2(N)CCC2)cc1` [Example 383, (4-(3-(4-(1-aminocyclobutyl)phenyl)-2-(2-aminopyridin-3-yl)-3H-imidazo[4,5-b]pyridin-5-yl)phenyl)methanol], the IC50 is 3.7 nM. To `NC(=O)c1ccccc1-c1ccc2nc(-c3cccnc3N)n(-c3ccc(C4(N)CCC4)cc3)c2n1` [Example 384, 2-(3-(4-(1-aminocyclobutyl)phenyl)-2-(2-aminopyridin-3-yl)-3H-imidazo[4,5-b]pyridin-5-yl)benzamide] belongs 37 nM; to `Nc1ncccc1-c1nc2ccc(-c3cccc(C(=O)NCCO)c3)nc2n1-c1ccc(C2(N)CCC2)cc1` [Example 385, 3-(3-(4-(1-aminocyclobutyl)phenyl)-2-(2-aminopyridin-3-yl)-3H-imidazo[4,5-b]pyridin-5-yl)-N-(2-hydroxyethyl)benzamide], 2.8 nM; to `CN(CCO)C(=O)c1cccc(-c2ccc3nc(-c4cccnc4N)n(-c4ccc(C5(N)CCC5)cc4)c3n2)c1` [Example 386, 3-(3-(4-(1-aminocyclobutyl)phenyl)-2-(2-aminopyridin-3-yl)-3H-imidazo[4,5-b]pyridin-5-yl)-N-(2-hydroxyethyl)-N-methylbenzamide], 2.3 nM. For the compound `NC(=O)c1ccc(-c2ccc3nc(-c4cccnc4N)n(-c4ccc(C5(N)CCC5)cc4)c3n2)cc1` [Example 387, 4-(3-(4-(1-aminocyclobutyl)phenyl)-2-(2-aminopyridin-3-yl)-3H-imidazo[4,5-b]pyridin-5-yl)benzamide], the IC50 was 8.7 nM. Next, `Nc1ncccc1-c1nc2ccc(-c3cccc(C(=O)N4CCOCC4)c3)nc2n1-c1ccc(C2(N)CCC2)cc1` [Example 388, (3-(3-(4-(1-aminocyclobutyl)phenyl)-2-(2-aminopyridin-3-yl)-3H-imidazo[4,5-b]pyridin-5-yl)phenyl)(morpholino)methanone]: 3 nM; `Nc1ncccc1-c1nc2ccc(-c3cccc(O)c3)nc2n1-c1ccc(C2(N)CCC2)cc1` [Example 389, 3-(3-(4-(1-aminocyclobutyl)phenyl)-2-(2-aminopyridin-3-yl)-3H-imidazo[4,5-b]pyridin-5-yl)phenol]: 1.6 nM; `Nc1ncccc1-c1nc2ccc(-c3cccc(N4CCOCC4)c3)nc2n1-c1ccc(C2(N)CCC2)cc1` [Example 390, 3-(3-(4-(1-aminocyclobutyl)phenyl)-5-(3-morpholinophenyl)-3H-imidazo[4,5-b]pyridin-2-yl)pyridin-2-amine]: 2.3 nM.

Regarding `CS(=O)(=O)c1cccc(-c2ccc3nc(-c4cccnc4N)n(-c4ccc(C5(N)CCC5)cc4)c3n2)c1` [Example 391, 3-(3-(4-(1-aminocyclobutyl)phenyl)-5-(3-(methylsulfonyl)phenyl)-3H-imidazo[4,5-b]pyridin-2-yl)pyridin-2-amine], the IC50 worked out at 5 nM. Next, `N#Cc1cccc(-c2ccc3nc(-c4cccnc4N)n(-c4ccc(C5(N)CCC5)cc4)c3n2)c1` [Example 392, 3-(3-(4-(1-aminocyclobutyl)phenyl)-2-(2-aminopyridin-3-yl)-3H-imidazo[4,5-b]pyridin-5-yl)benzonitrile]: 7.1 nM.

Consider `Nc1ncccc1-c1nc2ccc(-c3ccccn3)nc2n1-c1ccc(C2(N)CCC2)cc1` [Example 393, 3-(3-(4-(1-aminocyclobutyl)phenyl)-5-(pyridin-2-yl)-3H-imidazo[4,5-b]pyridin-2-yl)pyridin-2-amine], for which the IC50 worked out at 3.7 nM.
